# Measurements from article PMC12094946, “Evidence of focusing the MHC class I immunopeptidome by tapasin” (Frontiers in Immunology, 2025).
# Key:
# HLA-B*44:05-W147A = assay: Immunopeptidome analysis (W6/32 isolation, LC-MS/MS) of 721.220 cells reconstituted with human tapasin; format: cell-based; settings: sheet Overlaps; 1/0 flag; 5% peptide FDR
# Method: (§1) Approximately 5x10^8 cells were grown for each cell line, and cell pellets were snap frozen. Cell lysis and MHC-I peptide isolation were performed as previously described in detail ([30]). Briefly, cell pellets were lysed by cryomilling and incubation in a non-denaturing lysis buffer (0.5% Igepal CA-630, 50 mM Tris pH 8.0, 150 mM NaCl, 1 x Roche Complete protease inhibitor cocktail). MHC-I complexes were captured from the lysate using 7.5 mg of anti-MHC-I antibody, W6/32, immobilized on protein A Sepharose and subsequently dissociated with 10% acetic acid. The peptides were fractionated and separated from β2m and heavy chain components by reversed-phase high performance liquid chromatography (RP-HPLC). The peptide containing fractions were concentrated and chromatographically distant fractions were combined to generate nine pools, reconstituted in 15 µL 0.1% formic acid containing 500 fmol iRT reference peptides ([31]). Pools were analyzed by liquid chromatography-tandem mass spectrometry (LC-MS/MS) using a SCIEX 5600+ mass spectrometer, equipped with a NanoUltra cHiPLC system (Eksigent) and a Nanospray III ion source. Peptides were trapped on a cHiPLC trap column (3 µm, ChromXP C18CL, 120 Å, 0.5 mm x 200 µm), by loading at 5 µL/min in 0.1% formic acid, 2% acetonitrile, prior to elution over a cHiPLC column (3 µm, ChromXP C18CL, 120 Å, 15 cm x 75 µm) at 300 nL/min with increasing acetonitrile over 75 minutes. The mass spectrometer was operated as follows: ion spray voltage 2400 V, curtain gas 25 l/min, ion source gas 20 l/min, interface heater temperature 150°C, MS1 range 200-1800, MS1 accumulation time 200 ms, MS2 range 60-1800, and MS2 accumulation time 150 ms. The top 20 ions meeting the following criteria were selected for MS/MS fragmentation with rolling collision energy: >200 Da, charge state +2 to +5, >40 cps, dynamic exclusion 30 seconds after two occurrences. Mass spectra were interpreted by database search against the Uniprot/SwissProt ([32]) reviewed human proteome accessed October 2018 using PEAKS Studio XPRO (10.6 build, Bioinformatics Solutions Inc.) and a contaminant database contain the iRT reference peptide sequences using the following parameters: Instrument Triple TOF, fragmentation CID, parent mass error tolerance 25ppm, fragment mass error tolerance 0.1Da, enzyme none, digest mode unspecific, variable modifications Oxidation (M) +15.99 and Deamidation (NQ) +0.98, max variable modifications per peptide 3, False discovery rate (FDR) estimation enabled. A 5% peptide FDR was applied. Peptides identified from similar isolations of MHC class II from closely related 721.221 derived cell lines were excluded from downstream analyses.
# HLA-B*44:05 = HLA-B*44:05 (Homo sapiens, UniProt P01889, A223V/A65T/A93T/A95T/D201E/D98Y/E176V/E187L/E204Q/E69K/G107R/H137Y/K202T/L105A/L119I/N104T/N87E/Q56L/Q94N/R106L/R155S/R180D/S101N/S121R/S35A/S48T/T118I/V36M/W191S/Y91S); assay: as above; format: cell-based; settings: sheet Overlaps; 1/0 flag; 5% peptide FDR
# Method: as §1
# HLA-B*44:02 = HLA-B*44:02 (Homo sapiens, UniProt P01889, A223V/A65T/A93T/A95T/D201E/D98Y/E176V/E187L/E204Q/E69K/G107R/H137Y/K202T/L105A/L119I/N104T/N87E/Q56L/Q94N/R106L/R155S/R180D/S101N/S121R/S35A/S48T/T118I/V36M/W191S/Y140D/Y91S); assay: as above; format: cell-based; settings: sheet Overlaps; 1/0 flag; 5% peptide FDR
# Method: as §1
# HLA-A*02:01-fos = HLA-A*02:01-fos (Homo sapiens, UniProt P04439, D140Y/D185E/D98H/E176V/E277Q/G131W/G231S/I119V/I121R/I166T/I218V/L300P/L318F/N151K/N90K/P208A/P217A/Q86G/Q94H/R138H/R169H/T345S); assay: In vitro peptide competition experiments (fluorescence polarization)
# Method: Peptide competition experiments were prepared in PBS supplemented with 0.5 mg/ml bovine serum albumin (BSA) and a final concentration of 1.67% DMSO. The indicated concentrations of MHC-I molecules were supplemented with 20x excess β2-microglobulin and exposed to 366 nm light for 20 minutes at 4°C. Twenty µl of the UV exposed proteins were added to a 96 well microplate, with each well containing 40 µl of a titration (0 - 83.33 µM) of an unlabeled peptide competitor, 2–3 nM of the appropriate TAMRA labelled peptide, and 300 nM tapasin-jun-ERp57 (HLA-B*44 and HLA-B*35 experiments), or 300 nM TAPBPR (HLA-A*02:01 experiments) or neither tapasin-jun-ERp57 or TAPBPR. Samples were prepared in duplicate and incubated overnight at 25°C.
# HLA-B*44:05 and HLA-B*44:05-W147A proteins were used at 160 nM with 2 nM EEFGK*AFSF peptide. HLA-B*35:01-fos and HLA-B*35:03-fos proteins were used at 225 nM with 3 nM YPLK*EQHGM peptide.
# Fluorescence polarization measurements were taken using an I3x (Molecular Devices) with rhodamine detection cartridge.
Substance,B4405 W147A (peptide identified in immunopeptidome) (HLA-B*44:05-W147A),B4405 (peptide identified in immunopeptidome) (HLA-B*44:05),B4402 (peptide identified in immunopeptidome) (HLA-B*44:02),fold lower than unlabeled FLPSDCFPSV (HLA-A*02:01-fos; index peptide IC50 compared with IC50 of unlabeled FLPSDCFPSV),IC50 value of the index peptide (HLA-A*02:01-fos; suggested by the divergent effects of TAPBPR on the ability of peptides to compete for binding to HLA-A*02:01)
EEVDLSKDIQHW [peptide identified within the immunopeptidomes],0,1,1,,
AEDALHNLDRKW [peptide identified within the immunopeptidomes],0,1,1,,
SELALESQTKTY [peptide identified within the HLA-B*44:02 immunopeptidome],0,0,1,,
AEMDGAAAAKQVM [peptide identified within the immunopeptidomes],0,1,1,,
FLPSDC^TAMRAFPSV,,,,approximately 20 fold,around 3 µM
AEIGEGAYGKVF [peptide identified within the immunopeptidomes],0,1,1,,
